Series [1] is described as follows: Kinetics of insertion into monolayers. In kind it is binding, Salmonella enterica serotype Minnesota Re 595. The settings on record: initial pressure 32 mN·m^−1, peptide 0.48 μM, 25 min after injection, 10 mM Tris pH 7.4, 25 °C, average of three independent experiments (error < 10%).
Series [2] concerns fresh rabbit erythrocytes. Kind of series: Hemolysis assay. In kind it is cell-based. Particulars: 335 μM lipopeptide, 1 h at 37 °C, 10 mM Tris 80 mM NaCl pH 7.4, absorbance 540 nm, average of three independent experiments. How it is done:
Hemolytic activity was evaluated on fresh rabbit erythrocytes collected in EDTA collection tubes, as previously described. Briefly, an erythrocite suspension in buffer (10 mM Tris, 80 mM NaCl pH 7.4) was obtained by centrifugation (three times, 10 min at 4000 rpm) and adjusted at an optical density of 1 at 540 nm. Aliquots of 200 µL were incubated for 1 h at 37 °C with the different lipopeptides in 96-well polypropylene microtiter plates and centrifuged (15 min, 5000 rpm). Lipopetide-induced hemolysis was determined by measuring the absorbance at 540 nm of released hemoglobin (Asample) in the supernatant. Each determination was done by triplicate, and as negative and positive controls, erythrocytes in buffer (A0%) and in distilled water (A100%) were employed, respectively. Hemolysis was calculated according the following equation: % hemolysis = 100 · (Asample − A0%/A100% − A0%).

Series [3] is described as follows: Kinetics of insertion into monolayers. Format: binding. Particulars: 25 min after injection, 10 mM Tris pH 7.4, 25 °C, average of three independent experiments (error < 10%); for Increase in surface pressure (Δπ), POPE/POPG: POPE/POPG 6:4, initial pressure 32 mN·m^−1, peptide 0.48 μM.
Series [4] relates to Escherichia coli ATTC 25922. In kind it is cell-based.
Series [5] has as its system Staphylococcus aureus ATTC 25923. In kind it is cell-based.
The test system of series [6] is Pseudomonas aeruginosa ATTC 27853. In kind it is cell-based.
Series [7] can be described thus: FRET lipid mixing (NBD-PE/Rh-PE). The settings on record: 1:1 vesicles with 0.6% NBD-PE or Rh-PE, total lipid 107 μM, 25 °C, 10 mM Tris pH 7.4. As for the experimental part:
(§1) Large unilamellar vesicles (LUVs) of POPG, POPE/POPG (6:4), or POPC, alone or with the fluorescently labeled phospholipids NBD-PE or Rh-PE, were prepared by the evaporation of a mixture of the lipids and probes in CHCl3. The solvent was removed by a gentle stream of nitrogen gas followed by overnight storage under vacuum. The dried films were hydrated with Tris 10 mM pH 7.4 to the desired final lipid concentration and then sonicated in a bath type sonicator (Lab Supplies, Hickesville, NY, Model G112SPIT) until a clear dispersion was obtained (typically 3–5 min). […] The average diameter was determined by dynamic light scattering with a Malvern II-C Autosizer, with a z-diameter between 111 and 117 nm, and a polydispersity of 0.1. […] Moreover, they contained 0.2% Rh-PE for monitoring the fluorescence before and after the separation of the unencapsulated material, which was carried out by gel filtration on a Sephadex G-50 column eluted with 10 mM Tris 80 mM NaCl. In this way, the final lipid concentration was calculated taking into account the loss of lipid and the dilution of the sample.
Peptide-induced lipid mixing of vesicles of different composition was investigated in the same spectrofluorimeter, measuring the increase in fluorescence resonance energy transfer (FRET) from an NBD-PE donor population to an Rh-PE acceptor population. […]

The nature of the next series: ANTS/DPX vesicle leakage. Particulars: 0.9 µM peptide (0.8% peptide mol fraction), lipid 107 µM, 25 °C, 10 mM Tris pH 7.4, ANTS fluorescence. As for the experimental part:
as §1
To assess the leakage of co-encapsulated ANTS and DPX vesicles due to their interaction with peptides, fluorescence measurements were carried out at 25 °C in 1.5 mL 10 mM Tris buffer pH 7.4 on a SLM-Aminco AB-2 spectrofluorimeter with constant stirring. […]

A further series deals with E. coli. Put plainly: Transmission electron microscopy of treated bacteria. Format: cell-based, Escherichia coli. The settings on record: 1xMIC, 2 h, room temperature, tryptone water. As for the experimental part:
(§2) Then, 500 µL of this culture were added to 50 mL of tryptone water for a concentration of ≈10^8 bacteria·mL^−1. Aliquots of 10 mL were incubated with the lipopeptide at the desired concentration for 2 h at room temperature, and bacterial cells were collected by centrifugation (12,857 g, 20 min). Samples were fixed with 2.5% glutaraldehyde in phosphate buffer for 2 h at 4 °C, washed with the same buffer, and post fixed with 1% osmium tetroxide in buffer containing 0.8% potassium ferricyanide at 4 °C. Then, the samples were dehydrated for 1 h in acetone, infiltrated in a graded series of Epon resin (Ted pella, Inc., Redding, CA, USA) during 2 days, and finally embedded in fresh Epon resin and polymerized at 60 °C during 48 h. Ultrathin sections were obtained using a Leica Ultracut UCT ultramicrotome (Leica, Vienna, Austria) and mounted on Formvar-coated copper grids. Sections were stained with 2% aqueous uranyl acetate and lead citrate and examined in a JEM-1010 electron microscope (Jeol, Tokyo, Japan).

The next series concerns P. aeruginosa. The description is as above. In kind it is cell-based, Pseudomonas aeruginosa. The settings on record: 1xMIC, 2 h, room temperature, tryptone water. As for the experimental part:
as §2

Where [8] appears, read: initial pressure 32 mN·m^−1, peptide 0.48 μM.
The mark [9] stands for this setting: broth microdilution, MHB, 5 × 10^5 CFU/mL, overnight 37 °C, triplicate, higher of the three.
The mark [10] stands for this setting: value in brackets, broth microdilution, MHB, overnight 37 °C, triplicate.

Read-outs that look alike come from different tables or passages of the source. Positions of bridges follow the written chain, without caps; N, C: chain ends. Non-standard residues stand in square brackets, D forms with d. Residues, ends and D or L forms follow the SMILES beside them. *: point of attachment. dAoc(2) = CCCCCC[C@@H](N)C(=O)O; X1 = CC[C@H](C)CCCCC(=O)*; Heptanoyl = CCCCCCC(=O)*; Nle = CCCC[C@H](N)C(=O)O; Dab = NCC[C@H](N)C(=O)O

`CC[C@H](C)CCCCC(=O)N[C@@H](CCN)C(=O)N[C@H](C(=O)N[C@@H](CCN)C(=O)N[C@H]1CCNC(=O)[C@H]([C@@H](C)O)NC(=O)[C@H](CCN)NC(=O)[C@H](CCN)NC(=O)[C@H](CC(C)C)NC(=O)[C@@H](CC(C)C)NC(=O)[C@H](CCN)NC1=O)[C@@H](C)O` [PxE, Polymyxin E, reference compound] (X1-[Dab]T[Dab][Dab][Dab][dL]L[Dab][Dab]T; lactam 4-C): in [1], the “Increase in surface pressure (Δπ), LPS” value was determined as 11.1 mN·m^−1. Also, the hemolysis in series [2] is reported as 13%. The “Increase in surface pressure (Δπ), POPE/POPG” value in series [3] was determined as 7.9 mN·m^−1. For the same molecule, the “Increase in surface pressure (Δπ), POPC” value in [3] (setting [8]) worked out at 0.8 mN·m^−1. For the same molecule, the “Increase in surface pressure (Δπ), POPG” value in series [3] (setting [8]) is 5.3 mN·m^−1. In addition, the entries for the “MIC EC” value in [4] (setting [9]) and in [4] (setting [10]) were 1 µg/mL and 0.86 µM, respectively. In addition, the entries for the “MIC SA” value in series [5] (setting [9]) and in [5] (setting [10]) were above 32 µg/mL and above 27 µM, respectively. In addition, the entries for the “MIC PA” value in series [6] (setting [9]) and in [6] (setting [10]) were 0.5 µg/mL and 0.43 µM, respectively. In series [7], the “lipid mixing (increase in FRET)” value is listed as “no representative changes”.
Turning to `CCCCCCC(=O)N[C@@H](CCN)C(=O)N[C@H](C(=O)N[C@@H](CCN)C(=O)N[C@H]1CSSC[C@H](C(N)=O)NC(=O)[C@H](CCN)NC(=O)[C@H](CCN)NC(=O)[C@H](CCCC)NC(=O)[C@@H](CCCCCC)NC(=O)[C@H](CCN)NC1=O)[C@@H](C)O` [spE-10] (Heptanoyl-[Dab]T[Dab]C[Dab][dAoc(2)][Nle][Dab][Dab][dC]-NH2; disulfide 4-10), the “Increase in surface pressure (Δπ), LPS” value in series [1] is on record as 14.8 mN·m^−1. The “leakage from PE/PG vesicles” value in the series “ANTS/DPX vesicle leakage” is “no detectable leakage”. Further, in the series with E. coli, the “ultrastructural effect on E. coli (TEM)” value was “formation of intracellular membranous structures and cytoplasmic clear zones”. Also, the “ultrastructural effect on P. aeruginosa (TEM)” value in the series with P. aeruginosa was “significant rupture of the cell membranes and cytoplasmic clear zones”. For the same molecule, the “Increase in surface pressure (Δπ), POPE/POPG” value in [3] came to 8.2 mN·m^−1. Also, the “Increase in surface pressure (Δπ), POPC” value in [3] (setting [8]) is on record as 1.8 mN·m^−1. For the same molecule, the “MIC EC” value in series [4] (ATTC 25922) worked out at 6.7 µM; in series [4] (setting [9]), 8 µg/mL. Further, the entries for the “MIC SA” value in [5] (ATTC 25923) and in [5] (setting [9]) were above 27 µM and above 32 µg/mL, respectively. Besides, the “MIC PA” value in series [6] (ATTC 27853) worked out at 0.84 µM; in series [6] (setting [9]), 1 µg/mL.

The values above are taken from PMC8708274, “Unveiling the Membrane and Cell Wall Action of Antimicrobial Cyclic Lipopeptides: Modulation of the Spectrum of Activity” (Pharmaceutics, 2021).
